Experimental data: patent publication US20250388604A1, “Compounds and Their Use as PDE4 Activators” (Mironid Limited, priority 2022, published 2025)

system: m-IMCD3 cells; assay: Inhibition of PGE2-stimulated in vitro cyst formation in m-IMCD3 cells; type: cell-based, mouse; details: Mus musculus, mIMCD3, 144 h, 3 μM; mean cyst area, 100% for (DMSO + PGE2) and 0% for DMSO control; 6 days of culture; read-out: % Cyst area after incubation with 3 μM test compound
Summary of the method: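 m-IMCD3 cells embedded in collagen I/Matrigel 3D culture; 18–24 h after plating, compound (0.1% DMSO final) plus PGE2 (100 nM final) added, replenished after 2 or 3 days. After 6 days, z-stack imaging gave mean cyst area, normalized to DMSO+PGE2 (100%) and DMSO (0%).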

Structure (SMILES)	activity at 3 µM [%]
O=C(N1CCc2nc(N3C4CCC3CNC4)sc2C1)C(F)(F)c1ccnc(F)c1 [Example 251, 1-(2-(3,8-diazabicyclo[3.2.1]octan-8-yl)-6,7-dihydrothiazolo[5,4-c]pyridin-5(4H)-yl)-2,2-difluoro-2-(2-fluoropyridin-4-yl)ethan-1-one]	-6
COc1cc(F)cc(C#N)c1OCC(=O)N1CCc2nc(N3C4CCC3CNC4)sc2C1 [Example 253, 2-(2-(2-(3,8-diazabicyclo[3.2.1]octan-8-yl)-6,7-dihydrothiazolo[5,4-c]pyridin-5(4H)-yl)-2-oxoethoxy)-5-fluoro-3-methoxybenzonitrile]	-4
CC(C)C(O)C(=O)N1Cc2sc(N3C4CCC3CNC4)nc2C(C)(C)C1 (stereo not shown) [Example 259, 1-(2-(3,8-diazabicyclo[3.2.1]octan-8-yl)-7,7-dimethyl-6,7-dihydrothiazolo[5,4-c]pyridin-5(4H)-yl)-2-hydroxy-3-methylbutan-1-one]	-6
CC1(C)CN(C(=O)[C@H](O)C2CCCC2)Cc2sc(N3C4CCC3CNC4)nc21 [Example 262, (2R)-1-(2-(3,8-diazabicyclo[3.2.1]octan-8-yl)-7,7-dimethyl-6,7-dihydrothiazolo[5,4-c]pyridin-5(4H)-yl)-2-cyclopentyl-2-hydroxyethan-1-one]	23
CC1(C)CN(C(=O)c2ccc(F)nc2)Cc2sc(N3C4CCC3CNC4)nc21 [Example 264, (2-(3,8-diazabicyclo[3.2.1]octan-8-yl)-7,7-dimethyl-6,7-dihydrothiazolo[5,4-c]pyridin-5(4H)-yl)(6-fluoropyridin-3-yl)methanone]	-1
O=C(CC1CCCC1)N1Cc2sc(N3C4CCC3CNC4)nc2C2(CC2)C1 [Example 265, 1-(2′-(3,8-diazabicyclo[3.2.1]octan-8-yl)-4′H-spiro[cyclopropane-1,7′-thiazolo[5,4-c]pyridin]-5′(6′H)-yl)-2-cyclopentylethan-1-one]	-3
O=C(CC1CCCC1)N1Cc2sc(N3C4CCC3CNC4)nc2C(F)(F)C1 [Example 270, 1-(2-(3,8-diazabicyclo[3.2.1]octan-8-yl)-7,7-difluoro-6,7-dihydrothiazolo[5,4-c]pyridin-5(4H)-yl)-2-cyclopentylethan-1-one]	2
O=C(CC1CCCC1)N1CCc2nc(N3CCN4CCC[C@@H]4C3)sc2C1 [Example 272, (R)-2-cyclopentyl-1-(2-(hexahydropyrrolo[1,2-a]pyrazin-2(1H)-yl)-6,7-dihydrothiazolo[5,4-c]pyridin-5(4H)-yl)ethan-1-one]	16
CC(C)(C)CC(=O)N1CCc2nc(N3CCNCC3)sc2C1 [Example 274, 3,3-dimethyl-1-(2-(piperazin-1-yl)-6,7-dihydrothiazolo[5,4-c]pyridin-5(4H)-yl) butan-1-one]	14
O=C(CC1CCCC1)N1CCc2nc(N3CCNC[C@@H]3CO)sc2C1 [Example 275, (R)-2-cyclopentyl-1-(2-(2-(hydroxymethyl)piperazin-1-yl)-6,7-dihydrothiazolo[5,4-c]pyridin-5(4H)-yl)ethan-1-one]	19
O=C(CC1CCCC1)N1CCc2nc(N3CC4CCC3CN4)sc2C1 (stereo not shown) [Example 278, 1-(2-(2,5-diazabicyclo[2.2.2]octan-2-yl)-6,7-dihydrothiazolo[5,4-c]pyridin-5(4H)-yl)-2-cyclopentylethan-1-one]	2
O=S(=O)(Cc1ccc(F)cc1)N1CCc2nc(N3CCNCC3)sc2C1 [Example 287, 5-((4-fluorobenzyl)sulfonyl)-2-(piperazin-1-yl)-4,5,6,7-tetrahydrothiazolo[5,4-c]pyridine]	-3
CCN1CC2CCC(C1)N2c1nc2c(s1)CN(S(=O)(=O)Cc1ccccc1)CC2 [Example 289, 5-(benzylsulfonyl)-2-(3-ethyl-3,8-diazabicyclo[3.2.1]octan-8-yl)-4,5,6,7-tetrahydrothiazolo[5,4-c]pyridine]	-7
CCCN1CC2CCC(C1)N2c1nc2c(s1)CN(C(=O)CC1CCCC1)CC2 [Example 292, 2-cyclopentyl-1-(2-(3-propyl-3,8-diazabicyclo[3.2.1]octan-8-yl)-6,7-dihydrothiazolo[5,4-c]pyridin-5(4H)-yl)ethan-1-one]	0
CCN1CC2CCC(C1)N2c1nc2c(s1)CN(C(=O)N[C@@H]1CCOc3ccccc31)CC2 [Example 295, N—((R)-chroman-4-yl)-2-(3-ethyl-3,8-diazabicyclo[3.2.1]octan-8-yl)-6,7-dihydrothiazolo[5,4-c]pyridine-5(4H)-carboxamide]	-4
O=C(N[C@H]1CCOc2ccccc21)N1CCc2nc(N3CCNCC3)sc2C1 [Example 296, (S)—N-(chroman-4-yl)-2-(piperazin-1-yl)-6,7-dihydrothiazolo[5,4-c]pyridine-5(4H)-carboxamide]	33
CCN1CCN(c2nc3c(s2)CN(C(=O)CC(C)(C)C)CC3)CC1 [Example 299, 1-(2-(4-ethylpiperazin-1-yl)-6,7-dihydrothiazolo[5,4-c]pyridin-5(4H)-yl)-3,3-dimethylbutan-1-one]	3
CN1CC2CCC(C1)N2c1nc2c(s1)CN(C(=O)COc1ccc(F)cc1)CC2 [Example 301, 2-(4-fluorophenoxy)-1-(2-(3-methyl-3,8-diazabicyclo[3.2.1]octan-8-yl)-6,7-dihydrothiazolo[5,4-c]pyridin-5(4H)-yl)ethan-1-one]	-6
Cc1ccc(-c2nc3c(s2)CN(C(=O)CC2CCCC2)CC3)cn1 [Example 305, 2-cyclopentyl-1-(2-(6-methylpyridin-3-yl)-6,7-dihydrothiazolo[5,4-c]pyridin-5(4H)-yl)ethan-1-one]	26
Cc1cncc(-c2nc3c(s2)CN(C(=O)CC2CCCC2)CC3)c1 [Example 306, 2-cyclopentyl-1-(2-(5-methylpyridin-3-yl)-6,7-dihydrothiazolo[5,4-c]pyridin-5(4H)-yl)ethan-1-one]	-3

same assay, conditions: Mus musculus, mIMCD3, 144 h, 10 μM; mean cyst area, 100% for (DMSO + PGE2) and 0% for DMSO control; 6 days of culture; read-out: % Cyst area after incubation with 10 μM test compound

Structure (SMILES)	activity at 10 µM [%]
O=C(CC1CCCC1)N1Cc2sc(N3C4CCC3CNC4)nc2C2(CCOCC2)C1 [Example 266, 1-(2′-(3,8-diazabicyclo[3.2.1]octan-8-yl)-2,3,5,6-tetrahydro-4′H-spiro[pyran-4,7′-thiazolo[5,4-c]pyridin]-5′(6′H)-yl)-2-cyclopentylethan-1-one]	40
O=C(CC1CCCC1)N1CCc2nc(N3CCNC[C@H]3CO)sc2C1 [Example 284, (S)-2-cyclopentyl-1-(2-(2-(hydroxymethyl)piperazin-1-yl)-6,7-dihydrothiazolo[5,4-c]pyridin-5(4H)-yl)ethan-1-one]	19
